From PubChem BioAssay (NCI)
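At the GI50, growth is halved. TGI marks complete inhibition of growth.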

Key:
Experiment in all cases: growth of human tumour cells (NCI), 384-well format
786-0 renal = test system: 786-0 renal
A498 renal = test system: A498 renal
A549 NSCLC = test system: A549 NSCLC
ACHN renal = test system: ACHN renal
BT-549 breast = test system: BT-549 breast
CAKI-1 renal = test system: CAKI-1 renal
CCRF-CEM leukemia = test system: CCRF-CEM leukemia
COLO 205 colon = test system: COLO 205 colon
DU-145 prostate = test system: DU-145 prostate
EKVX NSCLC = test system: EKVX NSCLC
HCC-2998 colon = test system: HCC-2998 colon
HCT-116 colon = test system: HCT-116 colon
HCT-15 colon = test system: HCT-15 colon
HL-60(TB) leukemia = test system: HL-60(TB) leukemia
HOP-62 NSCLC = test system: HOP-62 NSCLC
HOP-92 NSCLC = test system: HOP-92 NSCLC
HS 578T breast = test system: HS 578T breast
HT29 colon = test system: HT29 colon
IGROV1 ovarian = test system: IGROV1 ovarian
KM12 colon = test system: KM12 colon
LOX IMVI melanoma = test system: LOX IMVI melanoma
M14 melanoma = test system: M14 melanoma
MALME-3M melanoma = test system: MALME-3M melanoma
MCF7 breast = test system: MCF7 breast
MDA-MB-231 breast = test system: MDA-MB-231 breast
MDA-MB-435 melanoma = test system: MDA-MB-435 melanoma
MDA-MB-468 breast = test system: MDA-MB-468 breast
MOLT-4 leukemia = test system: MOLT-4 leukemia
NCI-H226 lung = test system: NCI-H226 lung
NCI-H23 lung = test system: NCI-H23 lung
NCI-H322M lung = test system: NCI-H322M lung
NCI-H460 NSCLC = test system: NCI-H460 NSCLC
NCI-H522 lung = test system: NCI-H522 lung
NCI/ADR-RES ovarian = test system: NCI/ADR-RES ovarian
OVCAR-3 ovarian = test system: OVCAR-3 ovarian
OVCAR-4 ovarian = test system: OVCAR-4 ovarian
OVCAR-5 ovarian = test system: OVCAR-5 ovarian
OVCAR-8 ovarian = test system: OVCAR-8 ovarian
PC-3 prostate = test system: PC-3 prostate
RPMI-8226 leukemia = test system: RPMI-8226 leukemia
RXF 393 renal = test system: RXF 393 renal
SF-268 CNS = test system: SF-268 CNS
SF-295 CNS = test system: SF-295 CNS
SF-539 CNS = test system: SF-539 CNS
SK-MEL-28 melanoma = test system: SK-MEL-28 melanoma
SK-MEL-5 melanoma = test system: SK-MEL-5 melanoma
SK-OV-3 ovarian = test system: SK-OV-3 ovarian
SN12C renal = test system: SN12C renal
SNB-19 CNS = test system: SNB-19 CNS
SNB-75 CNS = test system: SNB-75 CNS
SR leukemia = test system: SR leukemia
SW-620 colon = test system: SW-620 colon
T-47D breast = test system: T-47D breast
TK-10 renal = test system: TK-10 renal
U251 glioblastoma = test system: U251 glioblastoma
UACC-257 melanoma = test system: UACC-257 melanoma
UACC-62 melanoma = test system: UACC-62 melanoma
UO-31 renal = test system: UO-31 renal

In the case of `CC(O)c1cc(C(=O)N[C@@H](C)Cn2ccc(-c3ccc(C#N)c(Cl)c3)n2)n[nH]1` (stereo partly specified), the GI50 (786-0 renal) is reported as over 100 µM, the TGI (786-0 renal) is reported as over 100 µM and the GI50 (A498 renal) is reported as over 100 µM. The TGI (A498 renal) was over 100 µM, the GI50 (A549 NSCLC) was over 93.4 µM and the TGI (A549 NSCLC) was over 100 µM. For the same molecule, the GI50 (ACHN renal) was over 46.4 µM, the TGI (ACHN renal) was over 69.6 µM and the GI50 (BT-549 breast) was 36.7 µM. The TGI (BT-549 breast) was 98.6 µM, the GI50 (CAKI-1 renal) was over 88.3 µM and the TGI (CAKI-1 renal) was over 100 µM. It also gave a GI50 (CCRF-CEM leukemia) of 31.5 µM, a TGI (CCRF-CEM leukemia) of over 100 µM and a GI50 (COLO 205 colon) of over 82.6 µM. It also gave a TGI (COLO 205 colon) of over 100 µM, a GI50 (DU-145 prostate) of over 100 µM and a TGI (DU-145 prostate) of over 100 µM. For the same molecule, the GI50 (EKVX NSCLC) was 34.8 µM, the TGI (EKVX NSCLC) was over 100 µM and the GI50 (HCC-2998 colon) was over 100 µM. It also gave a TGI (HCC-2998 colon) of over 100 µM, a GI50 (HCT-116 colon) of 33.8 µM and a TGI (HCT-116 colon) of over 100 µM. It also gave a GI50 (HCT-15 colon) of 59 µM, a TGI (HCT-15 colon) of over 100 µM and a GI50 (HL-60(TB) leukemia) of 28.9 µM. It also gave a TGI (HL-60(TB) leukemia) of over 61.9 µM, a GI50 (HOP-62 NSCLC) of over 67.6 µM and a TGI (HOP-62 NSCLC) of over 100 µM. For the same molecule, the GI50 (HOP-92 NSCLC) was over 100 µM, the TGI (HOP-92 NSCLC) was over 100 µM and the GI50 (HS 578T breast) was 65.6 µM. It also gave a TGI (HS 578T breast) of over 100 µM, a GI50 (HT29 colon) of over 100 µM and a TGI (HT29 colon) of over 100 µM. It also gave a GI50 (IGROV1 ovarian) of over 100 µM, a TGI (IGROV1 ovarian) of over 100 µM and a GI50 (KM12 colon) of over 92.4 µM. It also gave a TGI (KM12 colon) of over 100 µM, a GI50 (LOX IMVI melanoma) of 40.2 µM and a TGI (LOX IMVI melanoma) of over 100 µM. For the same molecule, the GI50 (M14 melanoma) was over 83.3 µM, the TGI (M14 melanoma) was over 100 µM and the GI50 (MALME-3M melanoma) was over 56.3 µM. For the same molecule, the TGI (MALME-3M melanoma) was over 100 µM, the GI50 (MCF7 breast) was 57.7 µM and the TGI (MCF7 breast) was over 100 µM. It also gave a GI50 (MDA-MB-231 breast) of 42.1 µM, a TGI (MDA-MB-231 breast) of over 100 µM and a GI50 (MDA-MB-435 melanoma) of over 74.1 µM. The TGI (MDA-MB-435 melanoma) was over 100 µM, the GI50 (MDA-MB-468 breast) was 12 µM and the TGI (MDA-MB-468 breast) was 42 µM. The GI50 (MOLT-4 leukemia) was 15.2 µM, the TGI (MOLT-4 leukemia) was 29 µM and the GI50 (NCI-H226 lung) was 35.6 µM. For the same molecule, the TGI (NCI-H226 lung) was over 75.9 µM, the GI50 (NCI-H23 lung) was 27.2 µM and the TGI (NCI-H23 lung) was over 100 µM. For the same molecule, the GI50 (NCI-H322M lung) was 34.9 µM, the TGI (NCI-H322M lung) was over 100 µM and the GI50 (NCI-H460 NSCLC) was over 76.4 µM. For the same molecule, the TGI (NCI-H460 NSCLC) was over 100 µM, the GI50 (NCI-H522 lung) was 43.3 µM and the TGI (NCI-H522 lung) was over 100 µM. It also gave a GI50 (NCI/ADR-RES ovarian) of over 100 µM, a TGI (NCI/ADR-RES ovarian) of over 100 µM and a GI50 (OVCAR-3 ovarian) of over 94.2 µM. It also gave a TGI (OVCAR-3 ovarian) of over 100 µM, a GI50 (OVCAR-4 ovarian) of 31.3 µM and a TGI (OVCAR-4 ovarian) of over 100 µM. For the same molecule, the GI50 (OVCAR-5 ovarian) was over 100 µM, the TGI (OVCAR-5 ovarian) was over 100 µM and the GI50 (OVCAR-8 ovarian) was 35.3 µM. For the same molecule, the TGI (OVCAR-8 ovarian) was 96.9 µM, the GI50 (PC-3 prostate) was over 100 µM and the TGI (PC-3 prostate) was over 100 µM. The GI50 (RPMI-8226 leukemia) was 21.9 µM, the TGI (RPMI-8226 leukemia) was over 70.8 µM and the GI50 (RXF 393 renal) was 22.9 µM. For the same molecule, the TGI (RXF 393 renal) was 69.6 µM, the GI50 (SF-268 CNS) was over 76.2 µM and the TGI (SF-268 CNS) was over 100 µM. The GI50 (SF-295 CNS) was over 57.4 µM, the TGI (SF-295 CNS) was over 100 µM and the GI50 (SF-539 CNS) was over 100 µM. It also gave a TGI (SF-539 CNS) of over 100 µM, a GI50 (SK-MEL-28 melanoma) of over 100 µM and a TGI (SK-MEL-28 melanoma) of over 100 µM. The GI50 (SK-MEL-5 melanoma) was 17.5 µM, the TGI (SK-MEL-5 melanoma) was 36.5 µM and the GI50 (SK-OV-3 ovarian) was over 64.3 µM. It also gave a TGI (SK-OV-3 ovarian) of over 100 µM, a GI50 (SN12C renal) of over 100 µM and a TGI (SN12C renal) of over 100 µM. It also gave a GI50 (SNB-19 CNS) of over 100 µM, a TGI (SNB-19 CNS) of over 100 µM and a GI50 (SNB-75 CNS) of over 74.4 µM. For the same molecule, the TGI (SNB-75 CNS) was over 100 µM, the GI50 (SR leukemia) was 15.9 µM and the TGI (SR leukemia) was 33.8 µM. It also gave a GI50 (SW-620 colon) of over 100 µM, a TGI (SW-620 colon) of over 100 µM and a GI50 (T-47D breast) of 17.8 µM. The TGI (T-47D breast) was 59.4 µM, the GI50 (TK-10 renal) was over 100 µM and the TGI (TK-10 renal) was over 100 µM. The GI50 (U251 glioblastoma) was over 100 µM, the TGI (U251 glioblastoma) was over 100 µM and the GI50 (UACC-257 melanoma) was over 80.4 µM. It also gave a TGI (UACC-257 melanoma) of over 100 µM, a GI50 (UACC-62 melanoma) of over 80.4 µM and a TGI (UACC-62 melanoma) of over 100 µM. For the same molecule, the GI50 (UO-31 renal) was over 45.2 µM and the TGI (UO-31 renal) was over 63 µM.
